From patent US7238469B2, “Carbon monoxide improves outcomes in tissue and organ transplants and suppresses apoptosis” (priority 2001, dated 2007) come the findings set out here.

Entries after “also recorded” stand apart in the source; their conditions may differ.

Data set [1] relates to 2F–2B ECs. Format: cell-based, murine. As to the method:
The murine 2F–2B endothelial cell line (ATCC) was transiently transfected as described elsewhere (Soares et al., Nature Med. 4:1073, 1998; Brouard et al, J. Exp. Med. 192:1015, 2000). All experiments were conducted 24–48 h after transfection. é-galactosidase-transfected cells were detected as described elsewhere (Soares et al., Nature Med. 4:1073, 1998; Brouard et al., J. Exp. Med. 192:1015, 2000). Percentage of viable cells was assessed by evaluating the number of é-galactosidase-expressing cells that retained normal morphology as described elsewhere (Soares et al., Nature Med. 4:1073, 1998; Brouard et al., J. Exp. Med. 192:1015, 2000). The number of random fields counted was determined to have a minimum of 200 viable transfected cells per control well. The percentage of viable cells was normalized for each DNA preparation to the number of transfected cells counted in the absence of the apoptosis-inducing agent (100% viability). All experiments were performed at least three times in duplicate. Actinomycin D (Act. D; Sigma) was dissolved in PBS and added to the culture medium (10 îg/ml) 24 h after transfection. SnPPIX (Porphyrin Products) was dissolved (10 îM) in 100 mM NaOH and conserved at −20° C. until used. SNPPIX was added to the culture medium (50 îM) 6 h after transfection. Human recombinant TNF-α (R&D Systems, Minneapolis, Minn.) was dissolved in PBS, 1% BSA, and added to the culture medium (10–100 ng/ml) 24 h after transfection.
Cells were exposed to compressed air or varying concentration of CO (250 and 10,000 ppm), as described elsewhere (Otterbein et al., Nature Med. 6:422, 2000; and Brouard et al., J. Exp. Med. 192:1015, 2000).
BAECs and 2F–2B ECs were transiently transfected. All experiments were carried out 24–48 h after transfection. The percentage of viable cells was assessed by evaluating the number of β-galactosidase-expressing cells that retained normal morphology. The number of random fields counted was determined to have a minimum of 200 viable transfected cells per control well. The percentage of viable cells was normalized for each DNA preparation to the number of transfected cells counted in the absence of the apoptosis-inducing agent (100% viability). All experiments were performed at least three times in duplicate.
Actinomycin D (Act.D; Sigma-Aldrich) was dissolved in PBS and added to the culture medium 24 h after transfection. The Act.D concentration used corresponded to the optimal concentration necessary to sensitize ECs to TNF-α mediated apoptosis, e.g., 10 μg/ml for 2F–2B ECs and 0.1 μg/ml for BAECs. When indicated, EC apoptosis was induced by etoposide (200 μM, 8 h; Calbiochem-Novabiochem) or by serum deprivation (0.1% FCS for 24 h). The iron chelator deferoxamine mesylate (DFO; Sigma-Aldrich) was dissolved in water and added to culture medium (1–100 μM) 1 h before the induction of apoptosis. Hemoglobin (Hb; Sigma-Aldrich) was dissolved (1 mM) in PBS, 10 mM Na2S2O4, dialyzed against PBS (2 h, 4° C., 1:800 dilution), and added to the culture medium (1–100 μM) 6 h after transfection. The guanylcyclase inhibitor 1H(1,2,4)oxadiazolo(4,3)quinoxalin-1 (ODQ; Calbiochem-Novabiochem) was dissolved in DMSO (Sigma-Aldrich) and added to the culture medium (10–100 μM) 6 h after transfection. Iron protoporphyrin ([FePP]/heme), cobalt protoporphyrin (CoPPIX), and tin protoporphyrin (SnPPIX; all from Porphyrin Products, Inc.) were dissolved (10 mM) in 100 mM NaOH and held at −20° C. until use. Metalloporphyrins were added to the culture medium (50 μM) 6 h after transfection. The cGMP analogue 8-bromo-cGMP sodium salt (8-Br-cGMP; Sigma-Aldrich) was dissolved in water and added to the culture medium (10–100 µM) 30 min before the induction of apoptosis. Human recombinant TNF- (R&D Systems) was dissolved in PBS and 1% BSA, and added to the culture medium (10–100 ng/ml) 24 h after transfection.
Cells were exposed to compressed air from a compressed air tank or varying concentrations of CO (250 and 10,000 ppm).

The subject of data set [2] is mouse hearts transplanted into rats. The data set is described as follows: Immunohistology of cardiac grafts (thrombosis, apoptosis). Format: in vivo, BALB/c mouse hearts, Lewis rats. To be noted: for vascular thrombosis in graft: 3 days after transplantation. As to the method: Grafts were harvested 3 days after transplantation, snap-frozen in liquid nitrogen, and stored at −80° C. Cryostat sections were fixed and stained as described previously (Soares et al, Nature Med. 4:1073, 1998). Rat leukocyte populations were analyzed by using anti-rat leukocyte common Ag (LCA, CD45; OX-1), Éé TCR (TCRÉé-chains; R73), B cell (CD45RB; OX-33), NK cell (NKR-P1; 3.2.3), and MΦ (CD68; ED-1), mAbs (Serotec, Harlan Bioproducts for Science, Indianapolis, Ind.). Detection of fibrin/fibrinogen was conducted by using a rabbit anti-human fibrin/fibrinogen polyclonal Ab (Dako, Carpinteria, Calif.). Intragraft complement activation was detected by using an anti-rat Clq (The Binding Site, Birmigham, U. K.), C3 (ED11; Serotec), or C5b-9 mAb (Dako). Rat IgM was detected by using the mouse anti-rat IgM mAb MARM-4 (a kind gift of Dr. H. Bazin, University of Louvain, Brussels, Belgium). Isotype-matched mAbs or purified Ig, as well as a control for residual endogenous peroxidase activity, were included in each experiment. Detection of apoptosis was carried out by using ApopTagO in situ apoptosis detection kit (Oncor, Gaithersburg, Md.) according to the manufacturer's instructions.
Mouse hearts were transplanted into CVF plus CsA-treated rats. SnPPIX or FePPIX was administered and graft recipients were exposed to CO (250–400 ppm). Grafts were harvested 3 days after transplantation (n=3 per group) and stained for rat IgM, rat and mouse complement C1q, rat and mouse P-selectin, rat and mouse fibrin/fibrinogen, and rat CD45 expressing leukocytes. […] HO-2, HO-1, and ferritin were detected in graft endothelial and smooth muscle cells as well as in cardiac myocytes (data not shown). There was only minimal vascular thrombosis or infiltration by host leukocytes usually associated with focal areas of infarction (data not shown). There was low but detectable P-selectin expression on the vascular endothelium (data not shown). […] Thrombi were consistently observed in large coronary vessels at the base of the heart. There were no detectable P-selectin-expressing platelet aggregates in the microvasculature (data not shown). There was extensive graft infiltration by host neutrophils as well as by CD45^++ leukocytes expressing the monocyte/MΦ marker CD68/ED-1 and MHC class II Ags (data not shown). Infiltrating monocyte/MΦ were found near arterioles and scattered throughout the myocardium, associated with areas of infarction.

[3] abbreviates: rats treated with SnPPIX or FePPIX.

As to `Nc1nc2c(nc(Br)n2[C@@H]2O[C@@H]3COP(=O)(O)O[C@H]3[C@H]2O)c(=O)[nH]1` [8-Br-cGMP, 8-bromoguanosine-3′-5′-cyclic-monophosphate], the “effect on EC apoptosis” value in data set [1] (8-Br-cGMP) is recorded as “failed to suppress EC apoptosis”.

With `[C-]#[O+]` [CO, carbon monoxide], in data set [2] (SnPPIX-treated rats exposed to CO 250–400 ppm), the “vascular thrombosis in graft” value is given as “no signs of vascular thrombosis”. Besides, the “apoptosis in transplanted mouse hearts” value in data set [2] (rats treated with SnPPIX and exposed to CO) is recorded as “Apoptosis did not occur”. The “effect on EC apoptosis under inhibition of HO activity by SnPPIX” value in data set [1] (CO 250 ppm) is “did not suppress EC apoptosis significantly”. The “effect on TNF-α mediated apoptosis of control ECs (pcDNA3)” value in data set [1] (exogenous CO 10,000 ppm) is on record as “TNF-α mediated apoptosis was suppressed”.

Take `C=CC1=C(C)c2cc3[n-]c(cc4[n-]c(cc5nc(cc1n2)C(C)=C5C=C)c(C)c4CCC(=O)O)c(CCC(=O)O)c3C.[Fe+2]` [FePPIX, iron protoporphyrin]: the “apoptosis in transplanted mouse hearts” value in data set [2] (setting [3]) is reported as “Apoptosis did not occur”. Besides, in data set [1] (2F–2B ECs), the “concentrations at which heme becomes cytotoxic” value is listed as “higher than 10 μM” and the “heme concentrations at which the protective effect from TNF-α plus Act.D-mediated apoptosis was observed” value was 5 to 7 µM. In addition, the “effect on EC apoptosis when CO was scavenged by Hb” value in data set [1] (FePP 6.25 μM, Hb 50 μM) is “no longer able to suppress EC apoptosis”.

For `O=c1onc2cnc3ccccc3n12` [ODQ, 1H[1,2,4]oxadiazolo[4,3-α]quinoxalin-1], the “effect on the antiapoptotic effects of HO-1” value in data set [1] (ODQ 10–100 μM) was “did not suppress the antiapoptotic effects of HO-1”.

As to `C=Cc1c2[n-]c(c1C)/C=c1\[n-]/c(c(C)c1C=C)=C\c1[n-]c(c(CCC(=O)O)c1C)C=c1[n-]/c(c(C)c1CCC(=O)O)=C\2.[Sn+4]` [SnPPIX, tin protoporphyrin IX], the “vascular thrombosis in graft” value in data set [2] (CVF plus CsA-treated rats, SnPPIX) is “widespread vascular thrombosis of large coronary vessels”. Besides, the “apoptosis in transplanted mouse hearts” value in data set [2] (setting [3]) is “widespread apoptosis of endothelial cells and cardiac myocytes”. In addition, the “effect of protoporphyrin on the antiapoptotic effect of HO-1” value in data set [1] (HO-1 transfected ECs, protoporphyrin 50 μM) is reported as “blocked the antiapoptotic effect of HO-1; also recorded: HO-1 was no longer able to prevent EC apoptosis”.
